Starred links: 1 amine or outer side, 2 acyl side, 3 side chain; linkers in the order of their positions; H or OH if unused. Positions of bridges follow the written chain, without caps; N, C: chain ends. Non-standard residues stand in square brackets, D forms with d. Residues, ends and D or L forms follow the SMILES beside them. *: point of attachment. NMeF = CN[C@@H](Cc1ccccc1)C(=O)O; NMeβAla = CN(CCC(=O)[*:2])[*:1]; NMeL = CN[C@@H](CC(C)C)C(=O)O; NMeV = CN[C@H](C(=O)O)C(C)C; NMeA = CN[C@@H](C)C(=O)O; Piperidide = C1CCN(*)CC1; dNMeA = CN[C@H](C)C(=O)O; Sar = CNCC(=O)O
Key:
[1] = PAMPA (parallel artificial membrane permeability assay); type: in vitro ADME; conditions: PAMPA; membrane permeation rate (Pe); 50 mM MOPSO buffer pH 6.5 with 5.0% glycocholic acid, 37° C., 18 hours; read-out: iPAMPA Pe
Summary of the method: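 Artificial membrane was 10% (w/v) egg lecithin plus 0.5% (w/v) cholesterol in dodecane on a PVDF filter. A 10 mM DMSO stock was added at 0.5% (v/v) to donor buffer (50 mM MOPSO, pH 6.5, 5.0% glycocholic acid). After 18 h at 37 °C, LC/MS or LC/UV gave donor and acceptor levels for Pe.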

[2] = Metabolic stability in human hepatic microsome; type: in vitro ADME; conditions: microsomes, pH 7.4; human hepatic microsome, NADPH(+); read-out: CL NADPH(+)

Row | SMILES | Papp at 18 hours, 50 µM [1] [×10⁻⁶ cm/s] | microsomal CLint at 1 uM [2] [µL/min/mg]
1 | CC(C)C[C@@H]1NC(=O)[C@H](CC(C)C)N(C)C(=O)[C@H](C)N(C)C(=O)C[C@@H](C(=O)N2CCCCC2)NC(=O)[C@H](CC(C)C)N(C)C(=O)[C@H](Cc2ccccc2)N(C)C(=O)[C@H](Cc2ccccc2)N(C)C(=O)[C@H]([C@@H](C)O)NC(=O)[C@H](Cc2ccccc2)N(C)C1=O [DP-442] ([NMeA][NMeL]L[NMeF]T[NMeF][NMeF][NMeL]D-Piperidide; lactam N-9) | 38 | 159
2 | CC(C)C[C@H]1C(=O)N(C)[C@@H](C)C(=O)N[C@H](C(=O)N(C)[C@@H](Cc2ccccc2)C(=O)N[C@@H](C)C(=O)N2CCCCC2)CC(=O)N(C)[C@H](C)C(=O)N(C)[C@@H](C)C(=O)N[C@@H](C)C(=O)N(C)[C@@H](Cc2ccccc2)C(=O)N(C)[C@@H](C)C(=O)N(C)[C@@H](Cc2ccccc2)C(=O)N[C@@H]([C@@H](C)O)C(=O)N(C)[C@@H](C)C(=O)N1C [DP-443] ([dNMeA][NMeA]A[NMeF][NMeA][NMeF]T[NMeA][NMeL][NMeA]D[NMeF]A-Piperidide; lactam N-11) | 9.1 | 17
3 | CC(C)C[C@H]1C(=O)N(C)[C@@H](C)C(=O)N[C@@H]([C@@H](C)O)C(=O)N(C)[C@@H](C)C(=O)N(C)[C@@H](Cc2ccccc2)C(=O)N(C)[C@@H](C)C(=O)N[C@@H](C)C(=O)N(C)[C@@H](C)C(=O)N(C)[C@@H](C)C(=O)N[C@H](C(=O)N(C)[C@@H](Cc2ccccc2)C(=O)N[C@@H](C)C(=O)N2CCCCC2)CC(=O)N(C)[C@H](C)C(=O)N1C [DP-444] ([dNMeA][NMeL][NMeA]T[NMeA][NMeF][NMeA]A[NMeA][NMeA]D[NMeF]A-Piperidide; lactam N-11) | 0.72 | 3
4 | CC(C)C[C@H]1C(=O)N(C)[C@@H](C)C(=O)N(C)[C@@H](Cc2ccccc2)C(=O)N[C@@H]([C@@H](C)O)C(=O)N(C)[C@@H](C)C(=O)N(C)[C@@H](Cc2ccccc2)C(=O)N(C)[C@@H](C)C(=O)N[C@H](C(=O)N(C)[C@@H](Cc2ccccc2)C(=O)N[C@@H](C)C(=O)N2CCCCC2)CC(=O)N(C)[C@@H](C)C(=O)N[C@@H](C)C(=O)N(C)[C@@H](C)C(=O)N1C [DP-445] ([NMeA]A[NMeA][NMeL][NMeA][NMeF]T[NMeA][NMeF][NMeA]D[NMeF]A-Piperidide; lactam N-11) | 11 | 14
5 | CC(C)C[C@@H]1NC(=O)[C@H](CC(C)C)N(C)C(=O)CCN(C)C(=O)C[C@@H](C(=O)N(C)[C@@H](Cc2ccccc2)C(=O)N[C@@H](C)C(=O)N2CCCCC2)NC(=O)[C@H](C)N(C)C(=O)[C@H]([C@@H](C)O)NC(=O)[C@H](Cc2ccccc2)NC(=O)[C@H](CC(C)C)N(C)C(=O)CNC(=O)[C@H](Cc2ccccc2)N(C)C1=O [DP-446] ([NMeβAla][NMeL]L[NMeF]G[NMeL]FT[NMeA]D[NMeF]A-Piperidide; lactam N-10) | 40 | 104
6 | CC[C@H](C)[C@@H]1NC(=O)[C@H](CC(C)C)N(C)C(=O)[C@H](C(C)C)N(C)C(=O)CCN(C)C(=O)C[C@@H](C(=O)N(C)[C@@H](Cc2ccccc2)C(=O)N[C@@H](C)C(=O)N2CCCCC2)NC(=O)[C@H]([C@@H](C)O)NC(=O)[C@H](Cc2ccccc2)N(C)C(=O)[C@H](C)N(C)C(=O)[C@H](CC(C)C)NC(=O)[C@H](C(C)C)N(C)C1=O [DP-447] ([NMeβAla][NMeV][NMeL]I[NMeV]L[NMeA][NMeF]TD[NMeF]A-Piperidide; lactam N-10) | 33 | 159
7 | CC(C)C[C@H]1C(=O)N(C)[C@@H](C)C(=O)N[C@@H](C(C)C)C(=O)N[C@H](C(=O)N(C)[C@@H](Cc2ccccc2)C(=O)N[C@@H](C)C(=O)N2CCCCC2)CC(=O)N(C)CCC(=O)N(C)[C@@H](C(C)C)C(=O)N(C)[C@@H](C)C(=O)N[C@@H](Cc2ccccc2)C(=O)N[C@@H]([C@@H](C)O)C(=O)N(C)[C@@H](C)C(=O)N1C [DP-448] ([NMeβAla][NMeV][NMeA]FT[NMeA][NMeL][NMeA]VD[NMeF]A-Piperidide; lactam N-10) | 6.2 | 27
8 | CC(C)C[C@H]1C(=O)N[C@H](C(=O)N(C)[C@@H](Cc2ccccc2)C(=O)N[C@@H](C)C(=O)N2CCCCC2)CC(=O)N(C)CCC(=O)N(C)[C@@H](C)C(=O)N[C@@H](C(C)C)C(=O)N(C)[C@@H](C(C)C)C(=O)N(C)[C@@H](Cc2ccccc2)C(=O)N(C)CC(=O)N[C@@H]([C@@H](C)O)C(=O)N(C)[C@@H](C)C(=O)N1C [DP-449] ([NMeβAla][NMeA]V[NMeV][NMeF][Sar]T[NMeA][NMeL]D[NMeF]A-Piperidide; lactam N-10) | 6 | 6
9 | CC(C)[C@@H]1NC(=O)[C@H](C)N(C)C(=O)[C@H](C(C)C)N(C)C(=O)CCN(C)C(=O)C[C@@H](C(=O)N(C)[C@@H](Cc2ccccc2)C(=O)N(C)[C@@H](Cc2ccccc2)C(=O)N[C@@H](C)C(=O)N2CCCCC2)NC(=O)[C@H](C)N(C)C(=O)[C@H](C)N(C)C(=O)[C@H]([C@@H](C)O)NC(=O)[C@H](C)N(C)C(=O)[C@H](Cc2ccccc2)N(C)C1=O [DP-450] ([NMeβAla][NMeV][NMeA]V[NMeF][NMeA]T[NMeA][NMeA]D[NMeF][NMeF]A-Piperidide; lactam N-10) | 2.3 | 17
10 | CC(C)C[C@@H]1NC(=O)[C@H](CC(C)C)N(C)C(=O)[C@H](CC(C)C)N(C)C(=O)[C@@H](C)N(C)C(=O)C[C@@H](C(=O)N(C)[C@@H](Cc2ccccc2)C(=O)N[C@@H](C)C(=O)N2CCCCC2)NC(=O)[C@H](CC(C)C)N(C)C(=O)[C@H](Cc2ccccc2)NC(=O)[C@H](Cc2ccccc2)N(C)C(=O)[C@H](C)NC(=O)[C@H]([C@@H](C)O)NC1=O [DP-451] ([dNMeA][NMeL][NMeL]LTA[NMeF]F[NMeL]D[NMeF]A-Piperidide; lactam N-10) | 35 | 14
11 | CC(C)C[C@H]1C(=O)NCC(=O)N[C@@H]([C@@H](C)O)C(=O)N(C)[C@@H](C(C)C)C(=O)N[C@@H](Cc2ccccc2)C(=O)N[C@H](C(=O)N(C)[C@@H](Cc2ccccc2)C(=O)N(C)[C@@H](Cc2ccccc2)C(=O)N[C@@H](C)C(=O)N2CCCCC2)CC(=O)N(C)[C@H](C)C(=O)N(C)[C@@H](C)C(=O)N[C@@H](C(C)C)C(=O)N(C)[C@@H](Cc2ccccc2)C(=O)N1C [DP-452] ([dNMeA][NMeA]V[NMeF][NMeL]GT[NMeV]FD[NMeF][NMeF]A-Piperidide; lactam N-10) | 22 | 21
12 | CC[C@H](C)[C@@H]1NC(=O)[C@H](C)N(C)C(=O)[C@H]([C@@H](C)O)NC(=O)[C@H](CC(C)C)N(C)C(=O)[C@H](Cc2ccccc2)NC(=O)[C@H](C(C)C)N(C)C(=O)[C@@H](C)N(C)C(=O)C[C@@H](C(=O)N(C)[C@@H](Cc2ccccc2)C(=O)N[C@@H](C)C(=O)N2CCCCC2)NC(=O)[C@H](C)N(C)C(=O)[C@H](CC(C)C)N(C)C1=O [DP-453] ([dNMeA][NMeV]F[NMeL]T[NMeA]I[NMeL][NMeA]D[NMeF]A-Piperidide; lactam N-10) | 25 | 64
13 | CC[C@H](C)[C@@H]1NC(=O)[C@H](C(C)C)N(C)C(=O)[C@H](CC(C)C)N(C)C(=O)[C@H](Cc2ccccc2)NC(=O)[C@@H](C)N(C)C(=O)C[C@@H](C(=O)N(C)[C@@H](Cc2ccccc2)C(=O)N(C)[C@@H](Cc2ccccc2)C(=O)N[C@@H](C)C(=O)N2CCCCC2)NC(=O)[C@H](C)N(C)C(=O)[C@H]([C@@H](C)O)NC(=O)[C@H](CC(C)C)N(C)C(=O)CN(C)C1=O [DP-454] ([dNMeA]F[NMeL][NMeV]I[Sar][NMeL]T[NMeA]D[NMeF][NMeF]A-Piperidide; lactam N-10) | 14 | 50
14 | CC[C@H](C)[C@@H]1NC(=O)[C@H](C)N(C)C(=O)[C@H](Cc2ccccc2)N(C)C(=O)[C@@H](C)N(C)C(=O)C[C@@H](C(=O)N(C)[C@@H](Cc2ccccc2)C(=O)N(C)[C@@H](Cc2ccccc2)C(=O)N[C@@H](C)C(=O)N2CCCCC2)NC(=O)[C@H](C)N(C)C(=O)[C@H]([C@@H](C)O)NC(=O)[C@H](C)N(C)C(=O)[C@H](CC(C)C)N(C)C(=O)[C@H](C)N(C)C1=O [DP-455] ([dNMeA][NMeF][NMeA]I[NMeA][NMeL][NMeA]T[NMeA]D[NMeF][NMeF]A-Piperidide; lactam N-10) | 15 | 17
15 | CC(C)C[C@H]1C(=O)N[C@@H](Cc2ccccc2)C(=O)N(C)[C@@H](C(C)C)C(=O)N[C@@H]([C@@H](C)O)C(=O)N[C@H](C(=O)N(C)[C@@H](Cc2ccccc2)C(=O)N(C)[C@@H](Cc2ccccc2)C(=O)N[C@@H](C)C(=O)N2CCCCC2)CC(=O)N(C)[C@@H](C)C(=O)N(C)[C@@H](C)C(=O)N[C@@H](C(C)C)C(=O)N(C)[C@@H](Cc2ccccc2)C(=O)NCC(=O)N1C [DP-456] ([NMeA][NMeA]V[NMeF]G[NMeL]F[NMeV]TD[NMeF][NMeF]A-Piperidide; lactam N-10) | 41 | 29
16 | CC(C)[C@@H]1NC(=O)[C@H](C)N(C)C(=O)[C@H](C)N(C)C(=O)[C@H](Cc2ccccc2)N(C)C(=O)CNC(=O)[C@H]([C@@H](C)O)NC(=O)[C@H](C(C)C)N(C)C(=O)[C@H](C)NC(=O)[C@H](C)N(C)C(=O)C[C@@H](C(=O)N(C)[C@@H](Cc2ccccc2)C(=O)N(C)[C@@H](Cc2ccccc2)C(=O)N[C@@H](C)C(=O)N2CCCCC2)NC1=O [DP-457] ([NMeA]A[NMeV]TG[NMeF][NMeA][NMeA]VD[NMeF][NMeF]A-Piperidide; lactam N-10) | 10 | 14
17 | CC(C)C[C@H]1C(=O)N[C@@H](C)C(=O)N(C)[C@@H](C)C(=O)N[C@H](C(=O)N(C)[C@@H](Cc2ccccc2)C(=O)N[C@@H](C)C(=O)N2CCCCC2)CC(=O)N(C)[C@@H](C)C(=O)N(C)[C@@H](C(C)C)C(=O)N(C)[C@@H](C)C(=O)N[C@@H]([C@@H](C)O)C(=O)N(C)[C@@H](C)C(=O)N[C@@H](Cc2ccccc2)C(=O)N1C [DP-458] ([NMeA][NMeV][NMeA]T[NMeA]F[NMeL]A[NMeA]D[NMeF]A-Piperidide; lactam N-10) | 7.7 | 10

— patent US9409952B2, “Peptide-compound cyclization method” (Chugai Seiyaku Kabushiki Kaisha, priority 2011, dated 2016)
